Experimental data taken from US20240287089A1, “Preparation and Uses of 7-Azaindenoisoquinolines” (Purdue Research Foundation, priority 0001, published 2024).
Where two headings read alike, the source gives them in different places.

Experiments:
[1] = test system: RAJI lymphoma cells; assay: MTS cell viability IC50 assay; type: cell-based; conditions: 72 h
Method: Cytotoxicity Results in Raji Non-Hodgkin's Lymphoma Cells. MTS experiments were then conducted to test the anti-proliferative effects of 7-aza-8,9-methylenedioxyindenoisoquinolines in Raji cells. Cells were incubated at 2-2000 nM of each drug for 72 h, and cell viabilities were quantified using the MTS assay. […] This potency trend generally correlated with the western blot results, in which G106 and G108 […] show weaker Myc downregulation.
(§1) MTS Cell Viability IC50 Assay. Drug solutions for MTS IC50 assays of suspension cell lines were made from DMSO stocks by serial-dilutions in 1×PBS (10010-031, Gibco). To set up treatments, drug solutions were plated in triplicates to 96-well tissue culture plates, to which cell-containing media was added to a total volume of 100 μL/well. 100%-viability controls were untreated cells. 2000 cells/well were plated for all suspension cell lines except 3000 cells/well for KMS-27 and 10000 cells/well for CHLA-32. Blanks were cell-free media. Drug treatments were maintained for 72 hr at 37° C. with 5% CO2. To quantify cells, CellTiter 96 AQueous MTS Reagent Powder (G1111, Promega) was dissolved and mixed with phenazine methosulfate (PMS, Sigma-Aldrich P9625) according to manufacturer's instructions. MTS/PMS mix ([…]) was added to treatment wells, 100%-viability control wells, and blank wells. Colors were developed at 37° C. with 5% CO2 for 4 h and absorbance at 490 nm was measured by BioTek Synergy 4 system. To obtain %-viability, A490 values were corrected by blank subtraction, normalized to 100%-viability control, and averaged. Average %-viabilities were plotted against drug dosages to obtain dose-response curves. […] For adherent cell lines, the MTS IC50 assays were conducted the same way as for suspension cell lines except for cell plating and drug treatment. For cell plating, 50 μL of 2000 cells were plated in triplicates to a 96-well tissue culture plate. Cells were allowed sufficient time to become adherent. Serial-diluted drug solutions were made the same way as in the MTS IC50 assays. To set up treatments, drug solutions were mixed with media to two-fold of the final concentrations, and 50 μL of such drug-media mix was then added to 50 μL of plated cells.

[2] = test system: CHLA-99; assay: MTS GI50, Myc-dependent panel; type: cell-based; conditions: CHLA-99, 72 h; read-out: GI50
Method: (§2) Cytotoxicity Results in Myc-dependent Cancer Cell Lines.
as §1

[3] = test system: HL-60; assay: MTS GI50, Myc-dependent panel; type: cell-based; conditions: HL-60, 72 h, read-out: GI50
Method: as §2, §1

[4] = test system: CCRF-CRM; assay: MTS GI50, Myc-dependent panel; type: cell-based; conditions: CCRF-CRM, 72 h; read-out: GI50
Method: as §2, §1

[5] = test system: MDA-MB-231; assay: MTS GI50, Myc-dependent panel; type: cell-based; conditions: MDA-MB-231, 72 h, read-out: GI50
Method: as §2, §1

[6] = test system: Kasumi-1; assay: MTS GI50, Myc-dependent panel; type: cell-based; conditions: Kasumi-1, 72 h, read-out: GI50
Method: as §2, §1

[7] = test system: MCF-7; assay: MTS GI50, Myc-dependent panel; type: cell-based; conditions: MCF-7, 72 h, read-out: GI50
Method: as §2, §1

[8] = test system: SK-N-MC; assay: MTS GI50, Myc-dependent panel; type: cell-based; conditions: 72 h, read-out: GI50
Method: as §2, §1

[9] = test system: CHLA-32; assay: MTS GI50, Myc-dependent panel; type: cell-based; conditions: CHLA-32, 72 h; read-out: GI50
Method: as §2, §1

[10] = test system: AMO-1; assay: MTS GI50, Myc-dependent panel; type: cell-based; conditions: AMO-1, 72 h, read-out: GI50
Method: as §2, §1

[11] = test system: ARD; assay: MTS GI50, Myc-dependent panel; type: cell-based; conditions: ARD, 72 h; read-out: GI50
Method: as §2, §1

[12] = test system: KMS-27; assay: MTS GI50, Myc-dependent panel; type: cell-based; conditions: KMS-27, 72 h; read-out: GI50
Method: as §2, §1

[13] = test system: RD-ES; assay: MTS GI50, Myc-dependent panel; type: cell-based; conditions: 72 h, read-out: GI50
Method: as §2, §1

[14] = test system: MOLT-4; assay: MTS GI50, Myc-dependent panel; type: cell-based; conditions: MOLT-4, 72 h, read-out: GI50
Method: as §2, §1

[15] = test system: THP-1; assay: MTS GI50, Myc-dependent panel; type: cell-based; conditions: THP-1, 72 h, read-out: GI50
Method: as §2, §1

[16] = test system: L-363; assay: MTS GI50, Myc-dependent panel; type: cell-based; conditions: L-363, 72 h, read-out: GI50
Method: as §2, §1

[17] = test system: RPMI-8226; assay: MTS GI50, Myc-dependent panel; type: cell-based; conditions: RPMI-8226, 72 h, read-out: GI50
Method: as §2, §1

[18] = test system: RS4;11; assay: MTS GI50, Myc-dependent panel; type: cell-based; conditions: RS4;11, 72 h, read-out: GI50
Method: as §2, §1

[19] = test system: TC-32; assay: MTS GI50, Myc-dependent panel; type: cell-based; conditions: TC-32, 72 h, read-out: GI50
Method: as §2, §1

[20] = test system: TC-71; assay: MTS GI50, Myc-dependent panel; type: cell-based; conditions: TC-71, 72 h; read-out: GI50
Method: as §2, §1

[21] = test system: TC-106; assay: MTS GI50, Myc-dependent panel; type: cell-based; conditions: TC-106, 72 h; read-out: GI50
Method: as §2, §1

[22] = test system: K-562; assay: MTS GI50, Myc-dependent panel; type: cell-based; conditions: K-562, 72 h, read-out: GI50
Method: as §2, §1

[23] = biological target: 3′-TAMRA-labeled MycG4 DNA; assay: Fluorescence binding assay; conditions: 20° C., 100 mM K+ buffer, pH 7.0; read-out: Apparent Binding Affinity Kd, app
Method: Binding Affinity to the Myc G-Quadruplex. Binding affinity of eight 7-aza-8,9-methylenedioxyindenoisoquinolines to MycG4 was determined using a fluorescence binding assay with a 3′-TAMRA-labeled MycG4 DNA. Monitoring TAMRA emission upon drug titration afforded binding isotherms, from which apparent binding affinities, Kd,app, were derived.
Fluorescence-Based Binding Assays. Fluorescence-based binding assays were performed on a Jasco FP-8300 spectrofluorometer equipped with a temperature controller at 20° C. in a quartz cuvette with a 10 mm path length. 3′-TAMRA-labeled MycG4 DNA (Sigma-Aldrich) was diluted to 20 nM using a 75 mM KCl/25 mM potassium phosphate buffer, pH 7.0. […] Fluorescence intensity at 580 nm, the maximum for the free DNA, was plotted against drug:DNA ratio. The apparent binding dissociation constant, Kd,app, was derived for the binding of each compound. Using OriginPro software (OriginLab Corp., United States) the change in fluorescence intensity was fitted to a one-site binding equation,
where B0 is the initial fluorescence intensity, B is maximum change in fluorescence intensity, R is DNA concentration, and L is drug:DNA ratio.

[24] = mouse, 6 h, 1 μM; for % Bound: plasma
Method: Analysis of Plasma Protein Binding and Stability in Human and Mouse Blood Plasma by Equilibrium Dialysis. Frozen plasma (stored at −80° C.) was thawed immediately in a 37° C. water bath. The working solutions of test compound and control compound were prepared in DMSO at 200 μM concentration, and the working solutions were spiked into plasma. The final concentration of compound was 1 μM. The final concentration of DMSO was 0.5%. Ketoconazole was used as positive control in the assay. The dialysis membranes were soaked in ultrapure water for 60 min to separate strips, then in 20% ethanol for 20 min, and then finally in dialysis buffer for 20 min. For equilibrium dialysis, each cell contained plasma sample (150 μL) and was dialyzed against an equal volume of dialysis buffer (PBS). The assay was performed in duplicate. The dialysis plate was sealed and incubated at 37° C. with 5% CO2 at 100 rpm for 6 h. At the end of incubation, samples (50 μL) from both buffer and plasma chambers were transferred to wells of a 96-well plate. Plasma (50 μL) was added to each buffer sample and an equal volume of PBS was added to the collected plasma sample. Cold acetonitrile (400 μL) containing internal standards (IS, 100 nM alprazolam, 200 nM labetalol, 200 nM imipramine and 2 μM ketoprofen) was added to precipitate protein and release compounds. Samples were vortexed for 2 min and centrifuged for 30 min at 3,220 g. An aliquot (100 μL) of the supernatant was diluted with ultra-pure H2O (100 μL), and the mixture was used for LC-MS/MS analysis. For stability determination in plasma, a spiked plasma sample (50 μL) was transferred to a new plate and incubated at 37° C., 5% CO2 for 0 and 6 h. At designated time points, PBS (50 μL) was added and mixed thoroughly, followed by the addition of room temperature quench solution [400 μL of acetonitrile containing internal standards (IS, 100 nM alprazolam, 200 nM labetalol, 200 nM imipramine and 2 μM ketoprofen)] to precipitate protein and release compounds. Samples were vortexed for 2 min and centrifuged for 30 min at 3,220 g. An aliquot (400 μL) of the supernatant was diluted by ultra-pure H2O, and the mixture was used for LC-MS/MS analysis. The concentrations of test compounds in the buffer and plasma chambers were determined from peak area ratios.

Row | SMILES | GI50 [2] [nM] | GI50 [4] [nM] | GI50 [9] [nM] | GI50 [11] [nM] | GI50 [12] [nM] | GI50 [13] [nM] | GI50 [20] [nM] | GI50 [21] [nM] | Kd [23] [nM] | IC50 ([1]; Homo sapiens, Raji) [nM] | GI50 ([3]; Homo sapiens) [nM] | GI50 ([5]; Homo sapiens) [nM] | GI50 ([6]; Homo sapiens) [nM] | GI50 ([7]; Homo sapiens, MCF7) [nM] | GI50 ([8]; Homo sapiens) [nM] | GI50 ([10]; Homo sapiens, AMO1) [nM] | GI50 ([14]; Homo sapiens) [nM] | GI50 ([15]; Homo sapiens) [nM] | GI50 ([16]; Homo sapiens) [nM] | GI50 ([17]; Homo sapiens) [nM] | further results
1 | COc1cc2c3c(n(CCCNCCO)c(=O)c2cc1OC)-c1cc2c(cc1C3=O)OCO2 [LMP744] | 77 | 57 | 156 | 77 | 190 | 24 | 244 | 277 | 11 |  |  |  |  |  |  |  |  |  |  |  | IC50 ([1]; RAJI): 120 nM; GI50 [3]: 354 nM; GI50 [5]: 968 nM; GI50 [6]: 721 nM; GI50 [7]: > 2000 nM; GI50 [8]: 237 nM; GI50 [10]: 285 nM; GI50 [14]: 4 nM; GI50 [15]: 305 nM; GI50 [16]: 119 nM; GI50 [17]: 620 nM; GI50 [18]: 30 nM; GI50 [19]: 121 nM; GI50 [22]: 219 nM
2 | COc1cc2c3c(n(CCCNCCO)c(=O)c2cc1OC)-c1nc2c(cc1C3=O)OCO2 [G105, 6-(3-((2-Hydroxyethyl)amino)propyl)-2,3-dimethoxy-5H-[1,3]dioxolo[4″,5″:5′,6′]pyrido[3′,2′:4,5]cyclopenta[1,2-c]isoquinoline-5,12(6H)-dione] | 31 | 57 | 96 | 121 | 141 | 22 | 197 | 202 | 97 | 147 | 290 | 806 | 530 | 1390 | 173 | 461 | 12 | 300 | 154 | 559 | % Recovery [24]: 90.43%; % Bound [24]: 79.41%; GI50 ([18]; Homo sapiens): 34 nM; GI50 ([19]; Homo sapiens): 104 nM; GI50 ([22]; Homo sapiens, K562): 196 nM
3 | COc1cc2c3c(n(CCCN4CCOCC4)c(=O)c2cc1OC)-c1nc2c(cc1C3=O)OCO2 [G101, 2,3-Dimethoxy-6-(3-morpholinopropyl)-5H-[1,3]dioxolo[4″,5″:5′,6′]pyrido[3′,2′:4,5]cyclopenta[1,2-c]isoquinoline-5,12(6H)-dione] | 526 | 248 | 708 | 190 | 530 | 608 | 756 | 848 | 249 | 340 | > 2000 | > 2000 | > 2000 | > 2000 | 698 | 1220 | 113 | 1320 | 342 | 905 | GI50 ([18]; Homo sapiens): 283 nM; GI50 ([19]; Homo sapiens): 569 nM; GI50 ([22]; Homo sapiens, K562): 1010 nM
4 | COc1cc2c3c(n(CCCNC(C)C)c(=O)c2cc1OC)-c1nc2c(cc1C3=O)OCO2 [G103, 6-(3-(Isopropylamino)propyl)-2,3-dimethoxy-5H-[1,3]dioxolo [4″,5″:5′,6′]pyrido[3′,2′:4,5]cyclopenta[1,2-c]isoquinoline-5,12(6H)-dione] | 89 | 57 | 55 | 70 | 206 | 31 | 153 | 202 |  | 167 | 328 | 644 | 432 | > 2000 | 150 | 317 | 19 | 602 | 126 | 234 | % Recovery [24]: 88.02%; % Bound [24]: 84.11%; GI50 ([18]; Homo sapiens): 53 nM; GI50 ([19]; Homo sapiens): 55 nM; GI50 ([22]; Homo sapiens, K562): 182 nM
5 | COc1cc2c3c(n(CCCN4CCOCC4)c(=O)c2cc1OC)-c1cc2c(cc1C3=O)OCO2 [LMP400, indotecan] | 773 | 316 | 812 | 126 | 543 | 472 | 1060 | 605 | 301 | 190 | 1390 | 1900 | > 2000 | > 2000 | 1050 | 738 | 239 | 915 | 214 | 989 | GI50 ([18]; Homo sapiens): 336 nM; GI50 ([19]; Homo sapiens): 574 nM; GI50 ([22]; Homo sapiens, K562): 864 nM
6 | CCNCCCn1c2c(c3cc(OC)c(OC)cc3c1=O)C(=O)c1cc3c(nc1-2)OCO3 [G104, 6-(3-(Ethylamino)propyl)-2,3-dimethoxy-5H-[1,3]dioxolo[4″,5″:5′,6′]pyrido [3′,2′:4,5]cyclopenta[1,2-c]isoquinoline-5,12(6H)-dione] | 58 | 49 | 33 | 55 | 141 | 20 | 122 | 157 | 55 | 131 | 270 | 476 | 266 | > 2000 | 137 | 184 | 13 | 358 | 96 | 190 | % Recovery [24]: 80.60%; % Bound [24]: 83.44%; GI50 ([18]; Homo sapiens): 38 nM; GI50 ([19]; Homo sapiens): 53 nM; GI50 ([22]; Homo sapiens, K562): 158 nM
7 | COc1cc2c3c(n(CCCn4ccnc4)c(=O)c2cc1OC)-c1nc2c(cc1C3=O)OCO2 [G102, 6-(3-(1H-Imidazol-1-yl)propyl)-2,3-dimethoxy-5H-[1,3]dioxolo[4″,5″:5′,6′]pyrido[3′,2′:4,5]cyclopenta[1,2-c]isoquinoline-5,12(6H)-dione] | 265 | 117 | 280 | 111 | 238 | 180 | 199 | 229 | 147 | 153 | > 2000 | 1050 | > 2000 | > 2000 | 170 | 804 | 43 | 1020 | 232 | 481 | GI50 ([18]; Homo sapiens): 120 nM; GI50 ([19]; Homo sapiens): 127 nM; GI50 ([22]; Homo sapiens, K562): 580 nM
